According to PMC6053404, “Enzymatic one-step ring contraction for quinolone biosynthesis” (Nature Communications, 2018):

Experiments:
AsqI = target: T1, AsqI (Aspergillus nidulans, UniProt C8VJQ3); test: LC-MS initial rate of […]′-methoxyviridicatin […] formation; type: biochemical; settings: MES Na 100 mM, NaCl 100 mM, pH 5.5, 30 °C; substrate 0.05-0.8 mM, Km extrapolated above tested range
T1 construct: hexahistidine-tagged, recombinant from Escherichia coli; plasmid pKW18244; zinc-dependent

PngL = tested on: T2, PngL; test: steady-state kinetics; type: biochemical, Penicillium sp. FKI-2140; settings: accurate parameters prevented by difficult purification; conditions in Supplementary Methods
T2 construct: hexahistidine-tagged, recombinant from Escherichia coli; difficult to purify

T1 sequence (C8VJQ3 whole entry): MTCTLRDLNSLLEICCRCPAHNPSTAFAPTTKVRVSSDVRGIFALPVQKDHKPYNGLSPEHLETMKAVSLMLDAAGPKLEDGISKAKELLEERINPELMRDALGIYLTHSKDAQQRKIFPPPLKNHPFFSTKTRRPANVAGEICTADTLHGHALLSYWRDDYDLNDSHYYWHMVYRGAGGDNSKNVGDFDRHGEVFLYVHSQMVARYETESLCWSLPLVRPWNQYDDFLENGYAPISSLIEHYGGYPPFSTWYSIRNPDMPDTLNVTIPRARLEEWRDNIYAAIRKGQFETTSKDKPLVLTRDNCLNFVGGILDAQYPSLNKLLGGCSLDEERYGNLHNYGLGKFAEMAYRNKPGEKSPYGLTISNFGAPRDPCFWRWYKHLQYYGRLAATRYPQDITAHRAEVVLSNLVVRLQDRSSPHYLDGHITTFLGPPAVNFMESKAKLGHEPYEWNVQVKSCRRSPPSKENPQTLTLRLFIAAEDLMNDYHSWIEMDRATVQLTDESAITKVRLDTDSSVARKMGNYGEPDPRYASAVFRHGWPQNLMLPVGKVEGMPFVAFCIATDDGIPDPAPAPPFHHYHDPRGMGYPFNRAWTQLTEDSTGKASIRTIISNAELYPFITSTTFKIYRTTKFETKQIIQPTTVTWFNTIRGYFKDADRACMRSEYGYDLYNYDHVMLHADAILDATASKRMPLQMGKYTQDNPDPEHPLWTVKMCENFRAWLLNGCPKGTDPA

Km (AsqI): 2860 ± 520 µM | Km (PngL): 350 ± 30 µM
SMILES: COc1ccc(C2OC23C(=O)Nc2ccccc2C(=O)N3C)cc1 (single isomer, unassigned; (-)) [compound 2, (–)-4′-methoxycyclopenin]
